# What was measured:
# JAK3 = target: T1, JAK3 (Homo sapiens, UniProt P52333); assay: z-lyte kinase assay, JAK3; type: biochemical
# T1 construct: purchased Invitrogen
# T1 sequence (P52333 1-1124): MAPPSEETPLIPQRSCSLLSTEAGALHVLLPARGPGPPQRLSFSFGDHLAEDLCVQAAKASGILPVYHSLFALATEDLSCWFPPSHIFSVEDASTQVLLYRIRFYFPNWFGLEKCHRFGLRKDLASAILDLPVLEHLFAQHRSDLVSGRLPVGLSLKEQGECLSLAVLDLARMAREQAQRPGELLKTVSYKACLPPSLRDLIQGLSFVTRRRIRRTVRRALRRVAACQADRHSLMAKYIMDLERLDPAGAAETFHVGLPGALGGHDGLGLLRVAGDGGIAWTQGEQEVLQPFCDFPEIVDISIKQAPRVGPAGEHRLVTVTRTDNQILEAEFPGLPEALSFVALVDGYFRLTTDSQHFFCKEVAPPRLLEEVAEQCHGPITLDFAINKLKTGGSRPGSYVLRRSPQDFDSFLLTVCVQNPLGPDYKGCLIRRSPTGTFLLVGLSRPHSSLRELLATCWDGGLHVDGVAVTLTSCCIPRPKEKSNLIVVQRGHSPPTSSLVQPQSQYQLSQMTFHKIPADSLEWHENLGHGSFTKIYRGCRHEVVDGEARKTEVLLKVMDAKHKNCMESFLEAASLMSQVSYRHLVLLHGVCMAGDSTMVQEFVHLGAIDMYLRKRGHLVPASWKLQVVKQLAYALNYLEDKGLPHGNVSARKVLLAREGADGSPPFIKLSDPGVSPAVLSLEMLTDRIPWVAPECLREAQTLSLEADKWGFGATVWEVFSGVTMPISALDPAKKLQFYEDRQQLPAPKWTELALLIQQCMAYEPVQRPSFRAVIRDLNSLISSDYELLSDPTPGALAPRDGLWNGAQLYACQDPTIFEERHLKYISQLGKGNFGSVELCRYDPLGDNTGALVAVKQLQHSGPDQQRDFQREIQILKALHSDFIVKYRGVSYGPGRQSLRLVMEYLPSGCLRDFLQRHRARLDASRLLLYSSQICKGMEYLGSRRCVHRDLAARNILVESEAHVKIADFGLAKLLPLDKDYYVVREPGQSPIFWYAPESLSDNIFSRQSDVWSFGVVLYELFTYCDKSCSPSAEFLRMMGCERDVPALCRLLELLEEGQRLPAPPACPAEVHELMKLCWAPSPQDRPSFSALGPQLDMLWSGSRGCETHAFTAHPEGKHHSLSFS
# In short: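 Each kinase was mixed with peptide substrate, compound (dilution series made at 1–0.0001 μM in 4% DMSO) and ATP added from a 5~300 μM solution, then incubated 60 min at RT. After development reagent and stop solution, fluorescence was read at 400 nm excitation/520 nm emission and IC50 calculated.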
# ITK = target: T2, ITK (Homo sapiens, UniProt Q08881); assay: z-lyte kinase assay, ITK; type: biochemical
# T2 construct: purchased Invitrogen
# T2 sequence (Q08881 1-620): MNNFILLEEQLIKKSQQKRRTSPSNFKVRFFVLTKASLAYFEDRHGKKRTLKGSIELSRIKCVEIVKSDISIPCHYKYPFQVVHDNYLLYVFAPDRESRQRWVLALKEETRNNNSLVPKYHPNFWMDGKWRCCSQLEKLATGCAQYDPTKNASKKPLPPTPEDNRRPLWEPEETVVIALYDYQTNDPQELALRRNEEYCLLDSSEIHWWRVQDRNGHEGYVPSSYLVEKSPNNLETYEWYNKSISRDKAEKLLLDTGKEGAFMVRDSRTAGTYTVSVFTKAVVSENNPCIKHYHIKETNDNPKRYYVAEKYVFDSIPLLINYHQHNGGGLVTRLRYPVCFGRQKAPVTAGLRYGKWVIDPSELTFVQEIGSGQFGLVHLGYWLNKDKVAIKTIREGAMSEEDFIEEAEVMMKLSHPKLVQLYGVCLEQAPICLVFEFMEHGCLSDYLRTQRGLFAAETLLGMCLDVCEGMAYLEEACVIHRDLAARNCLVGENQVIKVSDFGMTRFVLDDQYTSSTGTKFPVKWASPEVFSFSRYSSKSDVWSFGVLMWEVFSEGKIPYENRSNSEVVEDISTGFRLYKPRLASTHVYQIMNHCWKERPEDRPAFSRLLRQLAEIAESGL
structure (smiles),measurement,setting,value
"C=CC(=O)Nc1cccc(Oc2nc(Nc3ccc(N4CCN(C)CC4)cc3)nc3ccsc23)c1 [Example 1, N-(3-(2-(4-(4-methylpiperazin-1-yl)phenylamino)thieno[3,2-d]pyrimidine-4-yloxy)phenyl)acrylamide]",IC50,JAK3,≤ 50 nM
same,IC50,ITK,50 to 100 nM

# From patent publication USRE46511E1, “Fused pyrimidine derivatives for inhibition of tyrosine kinase activity” (HANMI SCIENCE CO., LTD., priority 2010, dated 2017)
